These results are taken from patent publication EP2311457A1, “Pharmaceutical compositions for treating infections with drug resistant mycobacteria” (priority 2009, dated 2011).

Values after ≈ are worked out from the molar mass of the structure shown.

For one series, the system named is Murine bone marrow derived macrophages.
Test: not given
Conditions: not given
Turning to `CCc1ccc(C=NNc2cc(OC)ncn2)nc1` [PH22-33, 5-ethylpyridine-2-aldehyde-6'-methoxy-4'-pyrimidylhydrazone], the “toxicity as measured by MTT assay” value is “No toxicity was observed”.

A further series has as its system Mtb H37Rv ATCC 272945. Briefly: Drug susceptibility testing, radiometric MIC determination (BACTEC 460TB). To be noted: Mycobacterium tuberculosis, ATCC272945|H37RV, read-out: minimal inhibitory concentrations.
Protocol: Drug susceptibility testing (DST) was performed with the broth-based radiometric BACTEC 460TB system (Becton Dickinson Diagnostic Systems, Sparks, MD) which is considered the laboratory "gold standard". The standard protocol for DST and determination of MICs was strictly followed as recommended by the manufacturers.
As for `c1ccc(C(=NNc2ccc3ccccc3n2)c2ccccn2)cc1` [PH22-15, 2-benzoylpyridine-2'-quinolylhydrazone], the MIC was found to be 0.25 µg/mL (≈ 0.771 µM).

With `Cc1cccc(NN=Cc2ccccn2)n1` [PH22-31, pyridine-2-aldehyde-6'-methyl-2'-pyridylhydrazone], the MIC was less than 1 µg/mL.

Take `C(=NNc1ccccn1)c1ccc(OCc2ccccc2)cn1` [PH22-49, 5-benzyloxypyridine-2-aldehyde-2'-pyridylhydrazone]: the MIC came out at 5 µg/mL (≈ 16.4 µM).

On to `c1ccc(C(=NNc2nncc3ccccc23)c2ccccn2)cc1` [PH22-22, 2-benzoylpyridine-1'-phthalazinylhydrazone], for which the MIC worked out at 5 µg/mL (≈ 15.4 µM).

For `Cc1ccc(C=NNc2ccc3ccccc3n2)nc1` [PH22-14, 5-methylpyridine-2-aldehyde-2'-quinolylhydrazone], the MIC turned out to be 0.5 µg/mL (≈ 1.91 µM).

As to `Cc1ccc(C=NNc2nncc3ccccc23)nc1` [PH22-16, 5-methyl-pyridine-2-aldehyde-1'-phthalazinylhydrazone], the MIC was less than 1 µg/mL.

On to `C(=NNc1nncc2ccccc12)c1ccc(OCc2ccccc2)cn1` [PH22-6, 5-benzyloxypyridine-2-aldehyde-1'-phthalazinylhydrazone], for which the MIC was found to be 5 µg/mL (≈ 14.1 µM).

In the case of `Clc1ccc(NN=Cc2ccc(OCc3ccccc3)cn2)nn1` [PH22-51, 5-benzyloxypyridine-2-aldehyde-6'-chloro-3'-pyridazinylhydrazone], the MIC was 1 µg/mL (≈ 2.94 µM).

As to `CCc1ccc(C=NNc2cc(OC)ncn2)nc1` [PH22-33, 5-ethylpyridine-2-aldehyde-6'-methoxy-4'-pyrimidylhydrazone], the MIC was less than 0.125 µg/mL.

Consider `C(=NNc1ncnc2ccccc12)c1ccc(OCc2ccccc2)cn1` [PH22-52, 5-benzyloxypyridine-2-aldehyde-4'-quinazolinylhydrazone], for which the MIC lay within 1 to 5 µg/mL (≈ 2.81 to 14.1 µM).
